From patent US20060205724A1, “Antagonizing nk-1 receptors inhibits consumption of substances of abuse” (The Regents of the University of California, priority 2002, published 2006) come the findings set out here.

For one test, the system named is rats. Kind of test: loss of righting reflex (measure of intoxication) in rats administered ethanol. The format is in vivo, rat. The following applies: rats given 3 g/kg of ethanol; vs vehicle-treated animals. An excerpt:
FIG. 1 illustrates the effect of an NK1 receptor antagonist (LY303870) on the loss of righting reflex in rats administrated ethanol at 3 and 4 g/kg. *P<0.05 vs vehicle-treated animals. n=9-10 per group.

For another test, the system named is rat. Briefly: self-administration of ethanol by a rat (ethanol intake, water intake, ethanol preference). The class given is in vivo. The source says: The graphs show ethanol intake, water intake, and ethanol preference.
FIG. 2 illustrates the effect of administration of the NK1 receptor antagonist LY303870 on self-administration of alcohol by a rat.
Without being bound to a particular theory, it is believed that this effect may be due to failure of WIN 51,708 to cross the blood-brain barrier.

Take `COc1ccccc1CN(C[C@@H](Cc1c[nH]c2ccccc12)NC(=O)CN1CCC(N2CCCCC2)CC1)C(C)=O` [LY303870]: the “loss of righting reflex (time the test animals were "drunk")” value in the test with rats is “reduced the time the test animals were “drunk””. In addition, the “ethanol preference (ethanol as compared to water)” value in the test on rat is on record as “reduced preference for ethanol as compared to water”. In addition, the self-administration of ethanol entry in the test on rat (2.5 mg/kg or greater) is listed as “significant reduction in self-administration of ethanol”.

Take `C#C[C@]1(O)CC[C@H]2[C@@H]3CC[C@H]4Cc5nc6nc7ccccc7n6cc5C[C@]4(C)[C@H]3CC[C@@]21C` [WIN 51,708]: in the test with rat, the ethanol consumption result is on record as “did not have a significant effect” and the “ethanol preference (ethanol as compared to water)” value is “did not alter preference”.
